Read-outs that look alike come from different tables or passages of the source.
Tested on: PGC-1α
Assay: Single point PGC-1α assay (in-cell ELISA in differentiated C2C12 myotubes)
Assay type: cell-based
Details: Mus musculus, each compound tested at 0.01 nM, DMSO control as 100 %
Protocol: Culture conditions: DMEM containing 25 mM glucose with 10 % FBS supplementation; grown at 37° C. and 5 % CO2.
Assay Conditions: C2C12 cells were cultured in DMEM supplemented in 10 % FBS up to 80 % confluence. The cells were further trypsinized and seeded into a 96 well plate at a density of 5000 cells/well (well volume – 100 µL) (Day 0). Following attachment, the cells were allowed to reach 80-90% confluence in the plate (typically 48 hours post seeding) and further differentiated using DMEM + 2 % Horse Serum (200 µL/well). The media was changed every day or at least every alternate day for 5 days to allow myoblasts to differentiate into myotubes. On day 7 (post seeding), the cells were treated with standards and test compounds for PGC-1α assay.
PGC-1α assay: For the detection of PGC-1α, the cells were incubated with 0.5 µg/ml primary antibody (Merck, WH0010891M3) in PBS-T containing 5 % BSA at 4° C. overnight. The cells were then washed three times with PBS-T for 5 minutes and incubated with 1:1000 dilution secondary antibody (Anti- rabbit IgG, HRP-linked Antibody, Cell Signaling) in PBS-T with 1 % BSA for 1 hour at RT. Cells were washed three times with PBS-T for 5 minutes The cells were incubated with 100 µl TMB substrate solution for 30 minutes and the reaction was stopped with 100 µl of 2N H2SO4. Then the plate was read at 450 nm using ELISA plate reader and absorbance recorded. % activity was calculated using DMSO control as 100 %. (For plate optical density calculations, a background correction was taken at 540 nm). Each compound was tested at a concentration of 0.01 nM.

[1] = average, count 1, read-out: Single point PGC1-Alpha Assay: Average Activity (%)
[2] = read-out: Single point PGC1-Alpha Assay: Activity (%)

Row | SMILES | activity at 10 pM [1] | activity at 10 pM [2]
1 | Cc1cc(O)cc(C2Oc3cc(O)cc(O)c3CC2O)c1 (stereo not drawn) | 109% | 109%
2 | Cc1cc(O)cc([C@H]2Oc3cc(O)cc(O)c3C[C@H]2O)c1 | 103% | 103%
3 | Cc1cc(O)cc([C@@H]2Oc3cc(O)cc(O)c3C[C@@H]2O)c1 | 114% | 114%
4 | Oc1cc(O)c2c(c1)O[C@@H](c1ccc(F)c(O)c1)[C@@H](O)C2 | 104% | 104%
5 | COc1cc([C@@H]2Oc3cc(O)cc(O)c3C[C@@H]2O)ccc1O | 124% | 124%
6 | Oc1cc(F)cc([C@@H]2Oc3cc(O)cc(O)c3C[C@@H]2O)c1 | 117% | 117%

— patent publication US20230192638A1, “POLYPHENOLS DERIVATIVES” (Epirium Bio Inc., priority 2021, published 2023)
